Tests used:
IL-8 = experiment: Expression of IL-8 in pancreatic cancer associated fibroblasts (ELISA); assay type: cell-based, human; conditions: P.CAF cells; compounds 10, 20, 30, 40, 60 and 80 µM for 48 hours; FIG. 6
Method: (§1) In order to confirm the effect of the compounds of Synthetic examples of the present invention on inflammation reaction in cancer associated fibroblasts, whether the expression of IL6 and IL8 was inhibited by the compounds of Synthetic examples in pancreatic cancer associated fibroblasts (PCAF) was observed.
(§2) After inoculating 1.5×10^5 cells in a 6 well plate and then culturing in P.CAF complete media for 48 hours, the compounds of Synthetic examples were treated by 10, 20, 30, 40, 60 and 80 µM for 48 hours according to each condition, and then the expression of IL-6 and IL-8 was confirmed by performing ELISA with Quantkine ELISA kit (R&D systems) as follows.
(§3) 100 µl of the culture solution in which the compounds of Synthetic examples were treated for 48 hours was added to the microplate strip for analysis including a 100 µl assay diluent and left at a room temperature for 2 hours and then the contents were removed, and then it was washed with 400 µl wash buffer 4 times. 200 µl of a human IL-6 or IL-8 conjugate was added and left at a room temperature for 2 hours and then the contents were removed, and then it was washed with 400 µl wash buffer 4 times. 200 µl of substrate solution was added and left at a room temperature for 20 minutes and then 50 µl of stop solution was added, and the absorbance at a wavelength of 450nm was measured within 30 minutes to confirm the expression level of IL-6 and IL-8.

[1] = tested on: LX-2 (human hepatic stellate cells); experiment: ROS production induced by PMA in LX-2 cells; assay type: cell-based; conditions: FIG. 1
Excerpt: (§4) In order to confirm the effect of the compounds of Synthetic examples on ROS production from fibroblasts and specific substrate cells, ROS production was induced by stimulation of PMA (phorbol 12-myristate 13-acetate), TGF-β1, palmitate or high concentration-glucose, or the like, in HL-60 cells differentiated into neutrophil cells by DMSO treatment, NHLF (normal human lung fibroblast, Lonza), LX-2 (human hepatic stellate cells, Sigma), ARPE19 (human retinal pigment epithelial cell, ATCC), and KEL-FIB (Keloid fibroblast, ATCC) cells, and under this condition, the inhibitory effect of ROS production of the compounds of Synthetic examples was observed.
(§5) The NHLF (normal human lung fibroblast, Lonza), LX-2 (human hepatic stellate cells, Sigma), ARPE19 (human retinal pigment epithelial cell, ATCC), KEL-FIB (keloid fibroblast, ATCC) cells were suspended in a culture medium containing 10% FBS and aliquoted on a 96 well plate and then cultured under the condition of 5% CO2, 37°C for 24 hours. After pre-treating the compounds of Synthetic examples at a concentration of 10, 20, 30, 40, 60 and 80 µM for 30 minutes to 1 hour, the ROS stimulus was treated to each well containing the cells and drug. After additional culturing for 48 hours, the ROS production level was confirmed using L-012 or DCF-DA.

IL-1β = experiment: Expression of IL-1β induced by LPS in human-derived fibroblasts (RT-PCR); assay type: cell-based; conditions: LPS (1 µg/ml) 6 hours; 10 µM; FIG. 8 (LX2, NHLF, ARPE19 and KEL-Fib cells)
Method: After inoculating 2×10^5 cells in a 6 well plate and then culturing for 24 hours, they were further cultured in a serum-free culture solution for 16 hours and then the Synthetic example 1 Compound was pre-treated for 20 minutes according to each condition and inflammation reaction was induced with LPS (1 µg/ml) for 6 hours. The expression of IL-1β was confirmed using RT-PCR. Total RNA was separated from the cells using RNeasy mini kit (Qiagen), and for the separated RNA 2ug, cDNA was synthesized using PrimeScript™ II 1st strand cDNA synthesis kit (TaKaRa) and then PCR was performed with AccuPower® PCR PreMix (Bioneer) to amplify genes. The nucleotide sequences for target primers are as follows. IL-1β (forward: 5'-[…]-3'(SEQ ID NO: 1), reverse: 5'-[…]-3'(SEQ ID NO: 2)); GAPDH (forward: 5'-[…]-3'(SEQ ID NO: 3), reverse: 5'-[…]-3'(SEQ ID NO: 4)); β-actin (forward: 5'-[…]-3'(SEQ ID NO: 5), reverse: 5'-[…]-3'(SEQ ID NO: 6)). The PCR product was confirmed by electrophoresis in 1.5% agarose gel.

[2] = tested on: NHLF (normal human lung fibroblast); experiment: ROS production induced by PMA in NHLF cells; assay type: cell-based; conditions: FIG. 1
Excerpt: as §4, §5

αSMA = experiment: Expression of αSMA induced by TGF-β1 (immunocytochemistry); assay type: cell-based, human; conditions: TGF-β1 (10 ng/ml), 10 µM, FIG. 4
Excerpt: In order to confirm whether the compounds of Synthetic examples of the present invention affect differentiation of fibroblasts into myofibroblasts, the inhibitory effect of the compounds of Synthetic examples on increase in expression of αSMA (biomarker for confirming differentiation into myofibroblasts) induced by TGF-β1 on HFF-1 (human foreskin fibroblast, ATCC), NHLF (normal human lung fibroblast, Lonza), LX-2 (human hepatic stellate cells, Sigma), ARPE19 (human retinal pigment epithelial cell, ATCC), and KEL-FIB (Keloid fibroblast, ATCC) cells was to be observed.
Each cell was suspended in a DMEM medium containing 10% FBS and aliquoted at a concentration of 1×10^4 to 1.5 × 10 ^5 cells/well in a 4-well chamber slide (Nunc) and the compounds of Synthetic examples and TGF-β1 (both TGF β1 and TGF-β have the same meaning) were treated to prepare cells to be used for confirming αSMA expression. The confirmation of αSMA expression in the prepared cells was performed by immunocytochemistry as follows. For the cells, fixation with 4% paraformaldehyde for 10 minutes and permeabilization using 0.1% Triton x-100 were performed, and then processes of treating the primary antibody (anti-αSMA Ab, 1:200, at 4°C for 16 hours) and secondary antibody (Alexa-594 conjugated Ab, 1:800, at a room temperature for 1 hour) against αSMA were progressed in order, and then the expression level of αSMA was observed using a fluorescence microscope.
FIG. 3 observes the effect of treating various compounds of Synthetic examples by 10, 20 and 40 µM, after inducing αSMA expression by treatment of TGF-β1(10 ng/ml) into HFF cells.

[3] = tested on: human foreskin fibroblasts (HFF-1, ATCC); experiment: Collagen gel contraction induced by TGF-β1; assay type: cell-based; conditions: HFF-1 cells and bovine type I collagen; TGF-β1 (10 ng/ml); 72 hours; FIG. 7
Excerpt: In order to confirm the effect of the compounds of Synthetic examples on differentiation of fibroblasts into myofibroblasts, the inhibitory effect of the compounds of Synthetic examples on the phenomenon of contraction of gel induced by interaction of human foreskin fibroblasts (HFF-1, ATCC) and collagen was observed.
The mixed solution of the HFF-1 cells and collagen (bovine type I collagen) prepared at a concentration of 3×10^6 cells/ml was aliquoted in a 24 well plate, respectively, and then cultured under the condition of 5% CO2, 37 °C for 1 hour to induce gel polymerization. Then, after suspending the gel attached on the plate from the plate using a spoon, a medium comprising TGF-β1 and Synthetic example compounds was added to each well. After culturing for 72 hours, the Synthetic example compounds were treated by 10, 20, 30, 40, 60 and 80 µM to measure the size of the gel, and thereby, the degree of contraction of the gel by drug treatment was confirmed.

IL-6 = experiment: Expression of IL-6 in pancreatic cancer associated fibroblasts (ELISA); assay type: cell-based, human; conditions: P.CAF cells; compounds 10, 20, 30, 40, 60 and 80 µM for 48 hours; FIG. 5
Method: as §1, §2, §3

CN(Cc1ccccc1)C1CCc2nn(-c3ccccn3)c(O)c2C1 (stereo not shown) [Compound 1, 5-(Benzylmethylamino)-2-(pyridin-2-yl)-4,5,6,7-tetrahydro-2H-indazol-3-ol]
IL-8 expressed in P.CAF (IL-8): effectively inhibited
ROS production induced by PMA [1]: inhibited
IL-1β induced by LPS (IL-1β): effectively inhibited in a concentration-dependent manner
ROS production induced by PMA [2]: inhibited
increase in expression of αSMA induced by TGF-β1 (αSMA; ARPE19 cells): significantly inhibited
increase in expression of αSMA induced by TGF-β1 (αSMA; KEL-FIB cells): significantly inhibited
increase in expression of αSMA induced by TGF-β1 (αSMA; LX-2 cells): significantly inhibited
increase in expression of αSMA induced by TGF-β1 (αSMA; NHLF cells): significantly inhibited
contraction of the gel induced by TGF-β1 [3]: effectively inhibited
IL-6 expressed in P.CAF (IL-6): effectively inhibited

From patent publication EP4501920A1, “NOVEL PYRAZOLE DERIVATIVES” (Aptabio Therapeutics Inc., priority 2022, dated 2023)
